Entries after “also recorded” stand apart in the source; their conditions may differ.
How the values were obtained:
Rop7-III TCR = test: SPR affinity of H-2 L^d-peptide complexes for immobilised recombinant Rop7-III TCR (BIAcore 3000); format: binding, mouse; conditions: peptide loaded in H-2 L^d as analyte, 1 to 200 µM, 25°C, biotinylated TCR on streptavidin CM5 chip, equilibrium model, at least duplicates; read-out: dissociation constant Kd
Protocol: (§1) Figure 2. Binding of Rop7-I, -II and -III to Rop7 peptide variants. (a) Splenocytes from WT or Rop7-I, -II and -III heterozygous mice were stained for CD8 and with H-2 L^d tetramers loaded with the indicated peptides. Histograms show H-2 L^d-Rop7 variants staining on CD8 T cells from WT or Rop7 mice. (b) TCRs from Rop7-I, -II and -III T cells were recombinantly expressed and refolded. Binding affinities for IPAAAGRFF-, IPAFAGRFF- and IPANAGRFF-loaded H-2 L^d were measured with a BIAcore 3000 and analysed using an equilibrium model. The raw data (black lines), fits (red lines) and calculated dissociation constant are shown in each panel.
For the Rop7-I, -II and -III TCRs, the α and β chains were cloned individually in the bacterial expression vector pET28a. Residues threonine 46 of the α chain's and serine 57 of the β chain's constant regions were mutated to cysteine to enable non-native disulfide bridge formation within the heterodimer complex. A biotinylation sequence was introduced at the C terminus of the β chain. The chains were separately expressed in Escherichia coli. BL21-DE3 (pLysS) and obtained as inclusion bodies and dissolved in 8 M urea, 25 mM MES, 1 mM EDTA, 1 mM DTT at pH 6.0. […] The final response was calculated after subtracting the control cell response. […] Equilibrium Kd values were calculated by nonlinear curve fitting of background-subtracted data using PRISM software.

[1] = system: CD8 T cells from Rop7-I mice; test: Peptide-loaded H-2 L^d tetramer staining; format: cell-based, mouse; conditions: caged tetramer approach, H-2 L^d tetramers loaded with peptide, splenocytes, flow cytometry
Protocol: as §1
(§2) Purified anti-CD3 (clone 17A2) and anti-CD28 (clone 37.51) antibodies, fluorescently labelled Granzyme B (clone 16G6), CD3ɛ (clone 145-2C11), CD4 (clone GK1.5), CD8 (clone 53-6.7), CD45.1 (clone A20) specific antibodies were purchased from eBioscience. Biotinylated anti-CD4 (clone GK1.5), anti-CD19 (clone 1D3), fluorescently labelled CD25 (clone 7D4), CD44 (clone 1M7), CD69 (clone H1.2F3), TNFα (clone MP6-XT22) and actin (clone ab-5) specific antibodies were purchased from BD Biosciences. Fluorescently labelled CD5 (clone 53-7.3), CD28 (clone E18), CD62 L (clone mel-14), Ki-67 (clone 16A8) specific antibodies and Zombie Aqua (cat. no. 423101) were purchased from Biolegend. Fluorescently labelled anti-IFNγclone 9004) was purchased from Sigma. Anti-phospho-tyrosine residue (clone 4G10) was purchased from Millipore. Anti-phopho-ERK (Thr202/Tyr204) (D13.14.4E, cat. no. 4370) and anti-phospho-S6 (Ser235/236) (D57.2.2E, cat. no. 4858) were purchased from Cell Signalling Technology. Horseradish peroxidase-conjugated anti-mouse antibody was purchased from GE Healthcare (cat. no. NXA931). Horseradish peroxidase-conjugated goat anti-rabbit antibody was purchased from Southern Biotech (cat. no. 4041-05). CD8 T cells isolation kit (130-095-236) and anti-biotin beads (130-090-485) were purchased from Miltenyi and used according to the manufacturer's instructions. ELISA kits for the detection of mouse IL-2 (cat. no. 431001), IFNγ (cat. no. 430801) and TNFα (cat. no. 430901) were purchased from BioLegend. ELISA for mouse IgM (cat. no. 88-50470-22) and IgG (cat. no. 88-50400-22) were purchased from Ebioscience. Recombinant mouse GM-CSF (cat. no. 315-03), IL-2 (212-12) and IL-4 (cat. no. 214-14) were purchased from Peprotech. Carboxyfluorescein succinimidyl ester (CFSE) was purchased from Sigma (cat. no. 21888). Protease inhibitor cocktail was purchased from Roche (cat. no. 11836153001). H-2 L^d tetramers were produced and used as described elsewhere or obtained from the NIH tetramer facility. All peptides were produced by the MIT biopolymer facility through standard solid-phase peptide synthesis or purchased from Pepceuticals, UK.

[2] = system: CD8 T cells from Rop7-II mice; test: Peptide-loaded H-2 L^d tetramer staining; format: cell-based, mouse; conditions: caged tetramer approach, H-2 L^d tetramers loaded with peptide, splenocytes, flow cytometry
Protocol: as §1, §2

[3] = system: CD8 T cells from Rop7-III mice; test: Peptide-loaded H-2 L^d tetramer staining; format: cell-based, mouse; conditions: caged tetramer approach, H-2 L^d tetramers loaded with peptide, splenocytes, flow cytometry
Protocol: as §1, §2

Rop7-I CD8 T cells = test: T-cell proliferation (CFSE dilution) with peptide-loaded BMDC; format: cell-based, mouse; conditions: 1 or 0.01 µg/ml, 3 days
Excerpt: (§3) Figure 4. Rop7 CD8 T cells proliferation and cytokine secretion upon Rop7 peptide variant stimulation. Sorted CD8^+ tetramer^+ T cells from pooled lymph nodes and spleen of Rop7-I, -II or -III heterozygous mice were labelled with CFSE and stimulated with BMDC loaded with Rop7 peptide variants at indicated concentrations. (a) Histograms show CFSE dilution on sorted CD8 T cells from Rop7-I, -II or -III mice stimulated with IPAAAGRFF peptide-loaded BMDC after 3 days of stimulation. (b) IL-2, TNFα and IFNγ concentration measured in culture supernatant after 3 days of stimulation. Mean of three technical replicates (T-cell stimulation). Error bars: standard deviation (n = 3). Representative of three independent experiments. (c) Bar histograms show the percentage of living cells (Zombie Aqua negative) after 3 days of stimulation with IPAAAGRFF-loaded BMDC. Mean of three technical replicates (T-cell stimulation). Error bars: standard deviation (n = 3). Representative of three independent experiments. (d) Histograms show CFSE dilution on sorted CD8 T cells from Rop7-I or -II heterozygous mice stimulated with IPANAGRFF peptide-loaded BMDC after 3 days of stimulation. (e) IL-2, TNFα and IFNγ concentration measured in culture supernatant after 3 days of stimulation. Mean of three technical replicates (T-cell stimulation). Error bars: standard deviation (n = 3). Representative of three independent experiments. (f) Bar histograms show the percentage of living cells (Zombie Aqua negative) after 3 days of stimulation with IPANAGRFF-loaded BMDC. *p < 0.05, **p < 0.01, ***p < 0.001 (Student's t-test).
(§4) Anti-CD3/28: plate-bound anti-CD3 (clone 17A2) and anti-CD28 (clone 37.51) at indicated concentrations in flat bottom 96-well plates in the presence of 10 ng ml^–1 recombinant mouse IL-2 when specified. BMDC: dendritic cells differentiated from bone marrow progenitors for 5–7 days in GM-CSF and IL-4 containing medium loaded with Rop7 peptide (final concentration 1 or 0.01 µg ml^−1). When indicated, 10–20 × 10^6 cells per millilitre were labelled in PBS 2.5 µM CFSE for 2 min at room temperature.

Rop7-II CD8 T cells [4] = test: as above; format: cell-based, mouse; conditions: 1 or 0.01 µg/ml, 3 days
Excerpt: as §3, §4

Rop7-II CD8 T cells [5] = test: Cytokine secretion with peptide-loaded BMDC; format: cell-based, mouse; conditions: 1 or 0.01 µg/ml, supernatant after 3 days, ELISA or multiplex, n = 3 technical replicates
Excerpt: as §3
(§5) Cytokine concentrations were measured by ELISA according to the manufacturer's instructions or by multiplex assay (Eve Technologies, Calgary, Alberta, Canada).

Rop7-II CD8 T cells [6] = test: T-cell viability (Zombie Aqua) with peptide-loaded BMDC; format: cell-based, mouse; conditions: 3 days
Excerpt: as §3, with “Representative of three independent experiments. (f) Bar histograms show the percentage of living cells (Zombie Aqua negative) after 3 days of stimulation with IPANAGRFF-loaded BMDC. *p < 0.05, **p < 0.01, ***p < 0.001 (Student's t-test).” left out

Rop7-III CD8 T cells [7] = test: T-cell proliferation (CFSE dilution) with peptide-loaded BMDC; format: cell-based, mouse; conditions: 1 or 0.01 µg/ml, 3 days
Excerpt: as §3, §4

Rop7-III CD8 T cells [8] = test: Cytokine secretion with peptide-loaded BMDC; format: cell-based, mouse; conditions: 1 or 0.01 µg/ml, supernatant after 3 days, ELISA or multiplex, n = 3 technical replicates
Excerpt: as §3, §5

Rop7 CD8 T cells = conditions: BMDC loaded with Rop7 peptide 1 µg/ml, 72 h, then peptide-loaded target splenocytes 16–20 h
Protocol: A measure of 1–2 × 10^5 sorted CD4^+ or CD8^+ tetramers^+ cells from pooled spleen and lymph nodes of Rop7-I, -II or -III mice were stimulated in complete RPMI in 96-well round bottom plates together with 0.5 × 10^5 Rop7 peptide-loaded BMDC (final concentration 1 µg ml^−1). After 72 h, cells were harvested and incubated with 10^5 total cells of a 1 to 1 mixture of CFSE-labelled, Rop7 peptide-loaded CD45.1 BALB/c splenocytes (final concentration 1 µg ml^−1) and control, CFSE-labelled, DMSO-treated CD45.2 BALB/c splenocytes in 96-well round bottom plates. After 16–20 h the ratio of living (propidium iodide negative) CD45.1 versus CD45.2 cells was determined by flow cytometry.

| Sequence | Kd (Rop7-III TCR) [µM] | tetramer binding [1] | tetramer binding [2] | tetramer binding [3] | proliferation (Rop7-I CD8 T cells) | proliferation (Rop7-II CD8 T cells [4]) | IL-2, TNFα and IFNγ production (Rop7-II CD8 T cells [5]) | cell death / living cells (Rop7-II CD8 T cells [6]) | proliferation (Rop7-III CD8 T cells [7]) | IL-2, TNFα and IFNγ production (Rop7-III CD8 T cells [8]) | cytotoxicity (Rop7 CD8 T cells) |
| --- | --- | --- | --- | --- | --- | --- | --- | --- | --- | --- | --- |
| IPANAGRFF | > 200 | Rop7-I and -II, but not Rop7-III T cells bound | Rop7-I and -II, but not Rop7-III T cells bound | not Rop7-III T cells bound | able to proliferate upon stimulation | able to proliferate upon stimulation | produced significantly fewer cytokines; also recorded: equally poor ability to secrete cytokines | more prone to cell death at both peptide concentrations; also recorded: enhanced cell death compared with Rop7-I CD8 T cells | – | – | – |
| IPAFAGRFF | > 200 | only Rop7-II T cells bound | only Rop7-II T cells bound | only Rop7-II T cells bound | – | – | – | – | – | – | – |
| IPAAAGRFF | – | bound tetramers loaded with the nominal antigen (IPAAAGRFF), with little quantitative variation | slightly less avid than binding to Rop7-I or -III | bound tetramers loaded with the nominal antigen (IPAAAGRFF), with little quantitative variation | able to proliferate upon antigenic stimulation in a dose-dependent manner | able to proliferate upon antigenic stimulation in a dose-dependent manner | produced overall less IL-2, TNFα and IFNγ; also recorded: secreted significantly fewer cytokines compared with Rop7-I and -III CD8 T cells | significantly increased tendency to cell death at a lower degree of stimulation; also recorded: an increased proportion of cells died as the strength of stimulus decreased | able to proliferate upon antigenic stimulation in a dose-dependent manner | secreted increased amounts of IL-2 and IFNγ but not TNFα when compared with Rop7-I; also recorded: produced significantly more IL-2 and IFNγ, but not TNFα, compared with Rop7-I CD8 T cells | all Rop7 CD8 T cells were cytotoxic, albeit with subtle but notable differences |

Reference: article PMC5133449, “Peripheral self-reactivity regulates antigen-specific CD8 T-cell responses and cell division under physiological conditions” (Open Biology, 2016)
